Among the test systems are SW-620 colon; OVCAR-5 ovarian; COLO 205 colon; NCI-H460 lung; K-562 leukemia; 786-0 renal; MDA-MB-231 breast; SNB-75 CNS; OVCAR-8 ovarian; EKVX NSCLC.
Experiment in all cases: growth of human tumour cells (NCI), 48 h

Several values for one entry are separate records, joined by “and”; a condition that tells them apart may be missing. Equal entries are not always repeated.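 Test compounds were applied to cells in 96-well plates for 48 hours at 5 doses. GI50 is the concentration that inhibits growth by half. Definition used: TGI = concentration required for complete inhibition of growth.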 Where only a bound is given, the exact number is not on record here.

For the compound `C[C@]12CC[C@@H]3c4cc(O)c(O)cc4CC[C@H]3[C@@H]1CC[C@@H]2O`, the GI50 with SW-620 colon was 2.73 µM; with OVCAR-5 ovarian, 25 µM; with COLO 205 colon it was 28.9 µM; with NCI-H460 lung it was 3.75 µM; with K-562 leukemia, 0.499 µM; in the experiment on 786-0 renal, 6.08 µM. In addition, the GI50 is 4.61 µM in the experiment on MDA-MB-231 breast, 1.55 µM in the experiment with SNB-75 CNS and 6.89 µM in the experiment with OVCAR-8 ovarian. Besides, the TGI is over 42.5 µM in the experiment with SW-620 colon; over 100 µM in the experiment with OVCAR-5 ovarian; over 73.3 µM in the experiment on COLO 205 colon; 18.1 µM in the experiment on NCI-H460 lung; over 100 µM in the experiment with K-562 leukemia; over 100 µM in the experiment on 786-0 renal. Also, the figures for the TGI with MDA-MB-231 breast, with SNB-75 CNS and in the experiment with OVCAR-8 ovarian were 52.5 µM, 8.32 µM and over 100 µM, respectively.

With `CC(=O)Nc1c(I)c(NC(C)=O)c(I)c(C(=O)O)c1I`, the GI50 with SW-620 colon, with OVCAR-5 ovarian, in the experiment with COLO 205 colon, in the experiment on NCI-H460 lung, with K-562 leukemia and in the experiment on 786-0 renal was over 100 µM each time. For the same compound, the GI50 with MDA-MB-231 breast, with EKVX NSCLC and with OVCAR-8 ovarian was over 100 µM throughout. The TGI with SW-620 colon, in the experiment on OVCAR-5 ovarian, in the experiment with COLO 205 colon, in the experiment on NCI-H460 lung, in the experiment on K-562 leukemia and with 786-0 renal was over 100 µM each time. Further, the TGI in the experiment with MDA-MB-231 breast, in the experiment on EKVX NSCLC and with OVCAR-8 ovarian was over 100 µM throughout.

Take `Cc1ccc2c(c1)c(Sc1ccc(C(=O)NO)cc1)c1n2CN(C)CC1`: the GI50 in the experiment with SW-620 colon is 1.77 µM; with OVCAR-5 ovarian, 1.75 µM; in the experiment with COLO 205 colon, 1.82 µM; in the experiment on NCI-H460 lung, 2.05 µM; with K-562 leukemia, 3.17 µM; in the experiment with 786-0 renal, 2.82 µM. Also, the GI50 in the experiment on MDA-MB-231 breast was 1.51 µM; in the experiment with SNB-75 CNS it was 0.96 µM; in the experiment with OVCAR-8 ovarian, 1.69 µM. Besides, the TGI came to 4.45 µM in the experiment on SW-620 colon; 5.54 µM with OVCAR-5 ovarian; 4.11 µM in the experiment with COLO 205 colon; 6.16 µM with NCI-H460 lung; 11.9 µM in the experiment with K-562 leukemia; 8.53 µM with 786-0 renal. The TGI is 4.13 µM in the experiment with MDA-MB-231 breast, 3.76 µM in the experiment with SNB-75 CNS and 4.99 µM with OVCAR-8 ovarian.

For `CC/C(=C(/c1ccc(O)cc1)c1ccc(OCCN)cc1)c1ccccc1`, the GI50 in the experiment on SW-620 colon is 1.87 µM; with OVCAR-5 ovarian it was 6.26 µM; with COLO 205 colon, 1.95 µM; with NCI-H460 lung, 1.96 µM; in the experiment with K-562 leukemia it was 2.03 µM; with 786-0 renal it was 2.69 µM. In addition, the GI50 with MDA-MB-231 breast is 1.98 µM; in the experiment on SNB-75 CNS, 1.86 µM; in the experiment on OVCAR-8 ovarian it was 3.12 µM. The TGI turned out to be 3.91 µM in the experiment with SW-620 colon; 20.2 µM with OVCAR-5 ovarian; 3.75 µM in the experiment with COLO 205 colon; 3.95 µM in the experiment on NCI-H460 lung; 4.72 µM in the experiment with K-562 leukemia; 7.28 µM in the experiment with 786-0 renal. In addition, the TGI with MDA-MB-231 breast amounted to 5.23 µM; in the experiment with SNB-75 CNS, 12.1 µM; with OVCAR-8 ovarian, 9.94 µM.

On to `CCCCCCCCCCCC(=O)N1CCN(C(C)=O)CC1`, for which the GI50 in the experiment on SW-620 colon was 25.2 µM; with OVCAR-5 ovarian it was 21.2 µM; with COLO 205 colon, 18.1 µM; in the experiment with NCI-H460 lung it was 19.8 µM; in the experiment with K-562 leukemia, 22.9 µM; in the experiment with 786-0 renal, 16.9 µM. Also, the GI50 in the experiment with MDA-MB-231 breast was 21 µM; in the experiment on EKVX NSCLC it was 33.5 µM; with OVCAR-8 ovarian, 29.3 µM. Besides, the TGI was determined as 46.6 µM in the experiment with SW-620 colon; 48.5 µM in the experiment on OVCAR-5 ovarian; 33.6 µM with COLO 205 colon; 38.1 µM in the experiment with NCI-H460 lung; 59.7 µM in the experiment on K-562 leukemia; 31.1 µM in the experiment with 786-0 renal. The TGI is 38.2 µM with MDA-MB-231 breast, over 100 µM in the experiment with EKVX NSCLC and over 100 µM with OVCAR-8 ovarian.

As to `N#Cc1c(N)n2c(nc1=Nc1ccc(Cl)cc1)sc1cc(Cl)ccc12`, the GI50 in the experiment with SW-620 colon was 3.42 µM; with NCI-H460 lung it was 22 µM; in the experiment with K-562 leukemia it was over 100 µM; with 786-0 renal it was 5.46 µM and 2.5 µM; in the experiment on MDA-MB-231 breast, 7.28 µM; with EKVX NSCLC it was 10.2 µM. For the same compound, the GI50 in the experiment on SNB-75 CNS is 5.07 µM. Besides, the TGI was over 100 µM in the experiment with SW-620 colon; over 100 µM in the experiment on NCI-H460 lung; over 100 µM in the experiment on K-562 leukemia; 5.03 µM with 786-0 renal; 71 µM in the experiment on MDA-MB-231 breast; over 100 µM in the experiment with EKVX NSCLC. The compound further registered a TGI with SNB-75 CNS of over 100 µM.

As to `Nc1nc(Cl)cc(NCC(O)CO)n1` (stereo unspecified), the TGI in the experiment on SW-620 colon, in the experiment on OVCAR-5 ovarian, with COLO 205 colon, with NCI-H460 lung, with K-562 leukemia and in the experiment with 786-0 renal was over 100 µM in each case. Further, the TGI in the experiment with EKVX NSCLC, with SNB-75 CNS and in the experiment on OVCAR-8 ovarian was over 100 µM each time.

Consider `COc1ccc2c(c1)[nH]c(=O)c1c3ccccc3cn21`, for which the GI50 in the experiment on SW-620 colon was 0.0264 µM; with OVCAR-5 ovarian, 0.101 µM; with COLO 205 colon, 0.0412 µM; with NCI-H460 lung it was 0.0348 µM; in the experiment with K-562 leukemia, 0.00892 µM; in the experiment on 786-0 renal, 0.0413 µM. The GI50 is 0.0565 µM and 0.148 µM in the experiment with MDA-MB-231 breast; 0.0907 µM and < 0.0478 µM in the experiment on EKVX NSCLC; 0.0581 µM with OVCAR-8 ovarian. In addition, the TGI is 1.42 µM and 1.51 µM in the experiment on SW-620 colon; 7.86 µM and 5.56 µM in the experiment on OVCAR-5 ovarian; 1.16 µM in the experiment with COLO 205 colon; 1.12 µM with NCI-H460 lung; 1.84 µM and 2.16 µM in the experiment with 786-0 renal; 0.74 µM and 1.08 µM with MDA-MB-231 breast. Also, the TGI with EKVX NSCLC is 19.1 µM; in the experiment on OVCAR-8 ovarian, 2.36 µM and 5.18 µM.

For `COc1ccc(Sc2nc3cc(N)cc(N)c3nc2-c2ccccc2)cc1`, the GI50 is 26.5 µM in the experiment with SW-620 colon; over 100 µM with OVCAR-5 ovarian; 19.3 µM in the experiment with COLO 205 colon; 20 µM in the experiment on NCI-H460 lung; 9.83 µM with K-562 leukemia; 52.3 µM in the experiment with 786-0 renal. Further, the GI50 with MDA-MB-231 breast and in the experiment on OVCAR-8 ovarian was over 100 µM throughout. Besides, the TGI with SW-620 colon, in the experiment on OVCAR-5 ovarian, in the experiment with COLO 205 colon, with NCI-H460 lung, with K-562 leukemia and in the experiment on 786-0 renal was over 100 µM throughout. Further, the TGI in the experiment on MDA-MB-231 breast and in the experiment with OVCAR-8 ovarian was over 100 µM throughout.

For the origin of these results see PubChem BioAssay (NCI).
